Test results taken from patent US20160318987A1 (MEDIMMUNE LIMITED, priority 2013, published 2016).
pEC50: −log10 of the molar value. Where a SMILES comes first, the peptide text is derived from it. [ ]: non-standard residue; d: D form. Aib = CC(C)(N)C(=O)O

Experiments:
Assay type in all cases: cell-based
Settings in all cases: n = 2
hGluc-R = target: T1, hGluc-R (Homo sapiens, UniProt P47871); assay: cAMP functional assay, cells expressing human glucagon receptor (primary assay)
T1 construct: expressed in transfected cells
T1 sequence (P47871 26-477): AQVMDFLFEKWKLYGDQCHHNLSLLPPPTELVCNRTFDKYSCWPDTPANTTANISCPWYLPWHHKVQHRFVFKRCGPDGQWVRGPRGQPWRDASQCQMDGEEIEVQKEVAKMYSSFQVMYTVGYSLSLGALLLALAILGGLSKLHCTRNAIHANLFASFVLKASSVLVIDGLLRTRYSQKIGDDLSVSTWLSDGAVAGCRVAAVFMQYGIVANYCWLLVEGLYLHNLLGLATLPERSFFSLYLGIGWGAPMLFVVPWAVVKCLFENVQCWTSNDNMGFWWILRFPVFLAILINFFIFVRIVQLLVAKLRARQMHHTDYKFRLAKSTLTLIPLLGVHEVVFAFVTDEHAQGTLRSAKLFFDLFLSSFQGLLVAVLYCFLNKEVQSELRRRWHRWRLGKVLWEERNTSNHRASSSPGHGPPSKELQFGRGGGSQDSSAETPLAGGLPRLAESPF
Procedure: The biological activities/receptor potencies of the synthetic GLP-1 peptides described herein are suitably tested for biological activity, e.g., stimulation of one or more cellular receptor responses. Stable cell lines expressing human, mouse, rat, or dog GLP-1 receptor (GLP-1R), glucagon receptor (GCGR) or glucose-dependent insulinotropic peptide (gastric inhibitory polypeptide) receptor (GIPR) are generated in HEK293 cells or CHO cells by standard methods.
cAMP assays were performed using “assay buffer”: Assay Buffer: 0.1% BSA (Sigma #A3059) in HBSS (Sigma #H8264) with 25 mM HEPES, pH 7.4 and containing 0.5 mM IBMX (Sigma #17018).
Low protein binding 384-well plates (Greiner #781280) are used to perform eleven 1 in 5 serial dilutions of test samples which are made in assay buffer. All sample dilutions are made in duplicate.
A frozen cryo-vial of cells expressing the receptor of interest is thawed rapidly in a water-bath, transferred to pre-warmed assay buffer and spun at 240× g for 5 minutes. Cells are re-suspended in assay buffer at a batch-dependent optimized concentration (e.g. hGCGR cells at 2×10^5 cells/ml, hGLP-1R and hGIPR cells at 1×10^5 cells /ml).
From the dilution plate, a 5 μL replica is stamped onto a black shallow-well u-bottom 384-well plate (Corning #3676). To this, 5 μL cell suspension is added and the plates incubated at room temperature for 30 minutes.
cAMP levels are measured using a commercially available cAMP dynamic 2 HTRF kit (Cisbio, Cat #62AM4PEJ), following the two step protocol as per manufacturer's recommendations. In brief; anti-cAMP cryptate (donor fluorophore) and cAMP-d2 (acceptor fluorophore) are made up separately by diluting each 1/20 in conjugate & lysis buffer provided in the kit. 5 μL anti-cAMP cryptate is added to all wells of the assay plate, and 5 μL cAMP-d2 is added to all wells except non-specific binding (NSB) wells, to which conjugate and lysis buffer are added. Plates are incubated at room temperature for one hour and then read on an Envision (Perkin Elmer) using excitation wavelength of 320 nm and emission wavelengths of 620 nm & 665 nm. EC50 values of the synthetic peptides determined in cAMP assays are then determined.

hGLP-1R = target: T2, hGLP-1R (Homo sapiens, UniProt P43220); assay: cAMP functional assay, cells expressing human GLP-1 receptor (primary assay)
T2 construct: expressed in transfected cells
T2 sequence (P43220 24-463): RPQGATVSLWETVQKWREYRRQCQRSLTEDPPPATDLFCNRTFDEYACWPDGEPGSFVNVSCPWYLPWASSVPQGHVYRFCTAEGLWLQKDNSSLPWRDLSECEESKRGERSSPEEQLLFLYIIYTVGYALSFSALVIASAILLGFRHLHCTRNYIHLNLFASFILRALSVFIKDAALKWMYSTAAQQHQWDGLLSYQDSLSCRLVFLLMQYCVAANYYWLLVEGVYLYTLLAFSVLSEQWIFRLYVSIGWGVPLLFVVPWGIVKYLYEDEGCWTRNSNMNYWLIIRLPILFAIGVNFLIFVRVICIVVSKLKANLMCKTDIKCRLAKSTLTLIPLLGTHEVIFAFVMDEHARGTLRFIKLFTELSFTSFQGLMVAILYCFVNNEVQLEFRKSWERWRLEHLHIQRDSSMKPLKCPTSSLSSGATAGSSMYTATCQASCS

hGIP-R = target: T3, hGIP-R (Homo sapiens, UniProt P48546); assay: cAMP functional assay, cells expressing human GIP receptor (primary assay)
T3 construct: expressed in transfected cells
T3 sequence (P48546 22-466): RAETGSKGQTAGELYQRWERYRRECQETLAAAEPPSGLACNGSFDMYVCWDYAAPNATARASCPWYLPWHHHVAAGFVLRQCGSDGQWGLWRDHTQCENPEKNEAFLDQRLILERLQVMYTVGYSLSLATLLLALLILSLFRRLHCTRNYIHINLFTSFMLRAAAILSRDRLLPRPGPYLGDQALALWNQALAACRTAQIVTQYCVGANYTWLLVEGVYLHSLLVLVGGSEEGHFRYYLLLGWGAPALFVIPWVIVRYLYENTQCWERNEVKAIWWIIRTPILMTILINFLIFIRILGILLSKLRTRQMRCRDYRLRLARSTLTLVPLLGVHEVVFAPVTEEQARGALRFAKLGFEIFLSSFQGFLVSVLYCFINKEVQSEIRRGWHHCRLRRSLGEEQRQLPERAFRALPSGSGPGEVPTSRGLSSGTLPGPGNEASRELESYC

pEC50 (hGluc-R) | pEC50 (hGLP-1R) | pEC50 (hGIP-R) | SMILES
6.88 | 10.36 | 6.88 | CC[C@H](C)[C@H](NC(=O)[C@H](Cc1ccccc1)NC(=O)[C@H](CCC(=O)O)NC(=O)[C@H](CCCCN)NC(=O)[C@H](C)NC(=O)[C@H](C)NC(=O)[C@H](CCC(N)=O)NC(=O)CNC(=O)[C@H](CCC(=O)O)NC(=O)[C@H](CC(C)C)NC(=O)C(C)(C)NC(=O)[C@H](CO)NC(=O)[C@H](CO)NC(=O)[C@@H](NC(=O)[C@H](CC(=O)O)NC(=O)[C@H](CO)NC(=O)[C@@H](NC(=O)[C@H](Cc1ccccc1)NC(=O)[C@@H](NC(=O)CNC(=O)[C@H](CCC(=O)O)NC(=O)C(C)(C)NC(=O)[C@@H](N)Cc1c[nH]cn1)[C@@H](C)O)[C@@H](C)O)C(C)C)C(=O)N[C@@H](C)C(=O)N[C@@H](Cc1c[nH]c2ccccc12)C(=O)N[C@@H](CC(C)C)C(=O)N[C@H](C(=O)N[C@@H](CCCCN)C(=O)NCC(=O)N[C@@H](CCCNC(=N)N)C(N)=O)C(C)C [SEQ ID NO: 10, H-(Aib)^2-EGT^5 FTSDV^10 SS-(Aib)^13-LE^15 GQAAK^20 EFIAW^25 LVKGR^30] (H-H[Aib]EGTFTSDVSS[Aib]LEGQAAKEFIAWLVKGR-NH2)
6.82 | 10.26 | 6.82 | CC[C@H](C)[C@H](NC(=O)[C@](C)(Cc1ccccc1)NC(=O)[C@H](CCC(=O)O)NC(=O)[C@H](CCCCN)NC(=O)[C@H](C)NC(=O)[C@H](C)NC(=O)[C@H](CCC(N)=O)NC(=O)CNC(=O)[C@H](CCC(=O)O)NC(=O)[C@H](CC(C)C)NC(=O)[C@H](Cc1ccc(O)cc1)NC(=O)[C@H](CO)NC(=O)[C@H](CO)NC(=O)[C@@H](NC(=O)[C@H](CC(=O)O)NC(=O)[C@H](CO)NC(=O)[C@@H](NC(=O)[C@H](Cc1ccccc1)NC(=O)[C@@H](NC(=O)CNC(=O)[C@H](CCC(=O)O)NC(=O)C(C)(C)NC(=O)[C@@H](N)Cc1c[nH]cn1)[C@@H](C)O)[C@@H](C)O)C(C)C)C(=O)N[C@@H](C)C(=O)N[C@@H](Cc1c[nH]c2ccccc12)C(=O)N[C@@H](CC(C)C)C(=O)N[C@H](C(=O)N[C@@H](CCCCN)C(=O)NCC(=O)N[C@@H](CCCNC(=N)N)C(N)=O)C(C)C [SEQ ID NO: 11, H-(Aib)^2-EGT^5 FTSDV^10 SSYLE^15 GQAAK^20 E-(α-MeF)^22IAW^25 LVKGR^30]
6.83 | 8.59 | 6.83 | CC[C@H](C)[C@H](NC(=O)C(C)(C)NC(=O)[C@H](CCC(=O)O)NC(=O)[C@H](CCCCN)NC(=O)[C@H](C)NC(=O)[C@H](C)NC(=O)[C@H](CCC(N)=O)NC(=O)CNC(=O)[C@H](CCC(=O)O)NC(=O)[C@H](CC(C)C)NC(=O)[C@H](Cc1ccc(O)cc1)NC(=O)[C@H](CO)NC(=O)[C@H](CO)NC(=O)[C@@H](NC(=O)[C@H](CC(=O)O)NC(=O)[C@H](CO)NC(=O)[C@@H](NC(=O)[C@H](Cc1ccccc1)NC(=O)[C@@H](NC(=O)CNC(=O)[C@H](CCC(=O)O)NC(=O)C(C)(C)NC(=O)[C@@H](N)Cc1c[nH]cn1)[C@@H](C)O)[C@@H](C)O)C(C)C)C(=O)N[C@@H](C)C(=O)N[C@@H](Cc1c[nH]c2ccccc12)C(=O)N[C@@H](CC(C)C)C(=O)N[C@H](C(=O)N[C@@H](CCCCN)C(=O)NCC(=O)N[C@@H](CCCNC(=N)N)C(N)=O)C(C)C [SEQ ID NO: 12, H-(Aib)^2-EGT^5 FTSDV^10 SSYLE^15 GQAAK^20 E-(Aib)^22IAW^25 LVKGR^30] (H-H[Aib]EGTFTSDVSSYLEGQAAKE[Aib]IAWLVKGR-NH2)
6.79 | 10.59 | 6.79 | CC[C@H](C)[C@H](NC(=O)[C@H](Cc1ccccc1)NC(=O)[C@H](CCC(=O)O)NC(=O)[C@H](CCCCN)NC(=O)[C@H](C)NC(=O)[C@H](C)NC(=O)[C@H](CCC(N)=O)NC(=O)CNC(=O)[C@H](CCC(=O)O)NC(=O)[C@H](CC(C)C)NC(=O)[C@H](Cc1ccc(O)cc1)NC(=O)[C@H](CO)NC(=O)[C@H](CO)NC(=O)[C@@H](NC(=O)[C@H](CC(=O)O)NC(=O)[C@H](CO)NC(=O)[C@@H](NC(=O)[C@H](Cc1ccccc1)NC(=O)[C@@H](NC(=O)CNC(=O)[C@H](CCC(=O)O)NC(=O)C(C)(C)NC(=O)[C@@H](N)Cc1c[nH]cn1)[C@@H](C)O)[C@@H](C)O)C(C)C)C(=O)N[C@@H](C)C(=O)N[C@@](C)(Cc1c[nH]c2ccccc12)C(=O)N[C@@H](CC(C)C)C(=O)N[C@H](C(=O)N[C@@H](CCCCN)C(=O)NCC(=O)N[C@@H](CCCNC(=N)N)C(N)=O)C(C)C [SEQ ID NO: 13, H-(Aib)^2-EGT^5 FTSDV^10 SSYLE^15 GQAAK^20 EFIA-(α-MeW)^25 LVKGR^30]
6.77 | 10.71 | 6.77 | CC[C@H](C)[C@H](NC(=O)[C@H](Cc1ccccc1)NC(=O)[C@H](CCC(=O)O)NC(=O)[C@H](CCCCN)NC(=O)[C@H](C)NC(=O)[C@H](C)NC(=O)[C@H](CCC(N)=O)NC(=O)CNC(=O)[C@H](CCC(=O)O)NC(=O)[C@H](CC(C)C)NC(=O)[C@H](Cc1ccc(O)cc1)NC(=O)[C@H](CO)NC(=O)[C@H](CO)NC(=O)[C@@H](NC(=O)[C@H](CC(=O)O)NC(=O)[C@H](CO)NC(=O)[C@@H](NC(=O)[C@H](Cc1ccccc1)NC(=O)[C@@H](NC(=O)CNC(=O)[C@H](CCC(=O)O)NC(=O)C(C)(C)NC(=O)[C@@H](N)Cc1c[nH]cn1)[C@@H](C)O)[C@@H](C)O)C(C)C)C(=O)N[C@@H](C)C(=O)N[C@@](C)(Cc1ccccc1)C(=O)N[C@@H](CC(C)C)C(=O)N[C@H](C(=O)N[C@@H](CCCCN)C(=O)NCC(=O)N[C@@H](CCCNC(=N)N)C(N)=O)C(C)C [SEQ ID NO: 14, H-(Aib)^2-EGT^5 FTSDV^10 SSYLE^15 GQAAK^20 EFIA-(α-MeF)^25 LVKGR^30]
6.75 | 10.33 | 6.75 | CC[C@H](C)[C@H](NC(=O)[C@H](Cc1ccccc1)NC(=O)[C@H](CCC(=O)O)NC(=O)[C@H](CCCCN)NC(=O)[C@H](C)NC(=O)[C@H](C)NC(=O)[C@H](CCC(N)=O)NC(=O)CNC(=O)[C@H](CCC(=O)O)NC(=O)[C@H](CC(C)C)NC(=O)[C@H](Cc1ccc(O)cc1)NC(=O)[C@H](CO)NC(=O)[C@H](CO)NC(=O)[C@@H](NC(=O)[C@H](CC(=O)O)NC(=O)[C@H](CO)NC(=O)[C@@H](NC(=O)[C@H](Cc1ccccc1)NC(=O)[C@@H](NC(=O)CNC(=O)[C@H](CCC(=O)O)NC(=O)C(C)(C)NC(=O)[C@@H](N)Cc1c[nH]cn1)[C@@H](C)O)[C@@H](C)O)C(C)C)C(=O)N[C@@H](C)C(=O)NC(C)(C)C(=O)N[C@@H](CC(C)C)C(=O)N[C@H](C(=O)N[C@@H](CCCCN)C(=O)NCC(=O)N[C@@H](CCCNC(=N)N)C(N)=O)C(C)C [SEQ ID NO: 15, H-(Aib)^2-EGT^5 FTSDV^10 SSYLE^15 GQAAK^20 EFIA-(Aib)^25 LVKGR^30]
6.96 | 10.78 | 6.96 | CC[C@H](C)[C@H](NC(=O)[C@H](Cc1ccccc1)NC(=O)[C@H](CCC(=O)O)NC(=O)[C@](C)(CCCCN)NC(=O)[C@H](C)NC(=O)[C@H](C)NC(=O)[C@H](CCC(N)=O)NC(=O)CNC(=O)[C@H](CCC(=O)O)NC(=O)[C@H](CC(C)C)NC(=O)[C@H](Cc1ccc(O)cc1)NC(=O)[C@H](CO)NC(=O)[C@H](CO)NC(=O)[C@@H](NC(=O)[C@H](CC(=O)O)NC(=O)[C@H](CO)NC(=O)[C@@H](NC(=O)[C@H](Cc1ccccc1)NC(=O)[C@@H](NC(=O)CNC(=O)[C@H](CCC(=O)O)NC(=O)C(C)(C)NC(=O)[C@@H](N)Cc1c[nH]cn1)[C@@H](C)O)[C@@H](C)O)C(C)C)C(=O)N[C@@H](C)C(=O)N[C@@H](Cc1c[nH]c2ccccc12)C(=O)N[C@@H](CC(C)C)C(=O)N[C@H](C(=O)N[C@@H](CCCCN)C(=O)NCC(=O)N[C@@H](CCCNC(=N)N)C(N)=O)C(C)C [SEQ ID NO: 20, H-(Aib)^2-EGT^5 FTSDV^10 SSYLE^15 GQAA-(α-MeK)^20 EFIAW^25 LVKGR^30]
